Patent US9169254B2, “Spiroimidazolone derivative” (Chugai Seiyaku Kabushiki Kaisha, priority 2009, dated 2015)

biological target: T1, human PTH1 receptor (Homo sapiens, UniProt Q03431); experiment: In vitro cAMP signal activity in HKRK-B7 cells (LLC-PK1 cells overexpressing the human PTH1 receptor); assay type: cell-based; settings: HKRK-B7 cells; compound at 1×10^−3 M; cAMP produced as percentage of that produced by hPTH(1-34) at 100 nM
T1 sequence (Q03431 27-593): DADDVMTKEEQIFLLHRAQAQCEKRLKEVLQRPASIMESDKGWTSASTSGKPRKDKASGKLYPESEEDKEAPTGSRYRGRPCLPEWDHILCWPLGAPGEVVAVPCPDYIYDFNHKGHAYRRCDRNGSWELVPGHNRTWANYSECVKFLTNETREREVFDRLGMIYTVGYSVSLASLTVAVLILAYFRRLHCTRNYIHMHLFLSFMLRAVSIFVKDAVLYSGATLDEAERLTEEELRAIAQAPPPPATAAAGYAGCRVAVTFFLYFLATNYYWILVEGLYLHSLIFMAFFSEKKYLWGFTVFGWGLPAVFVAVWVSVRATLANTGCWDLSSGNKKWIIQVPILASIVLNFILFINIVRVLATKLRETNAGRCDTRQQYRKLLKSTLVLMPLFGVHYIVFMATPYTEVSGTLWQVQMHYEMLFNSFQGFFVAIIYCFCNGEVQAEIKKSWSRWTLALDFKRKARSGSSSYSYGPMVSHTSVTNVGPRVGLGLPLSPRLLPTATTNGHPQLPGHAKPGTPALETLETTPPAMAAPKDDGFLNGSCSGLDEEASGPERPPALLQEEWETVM

Row | cAMP production activity (%) | SMILES
1 | 64% | CCCCCCCCCC1=NC2(CCN(S(=O)(=O)CCc3c(C)cc(C(=O)O)cc3C)CC2)C(=O)N1 [Compound 796, 3,5-dimethyl-4-[2-(2-nonyl-4-oxo-1,3,8-triaza-spiro[4.5]dec-1-ene-8-sulfonyl)-ethyl]-benzoic acid]
2 | 88% | Cc1cc(C(=O)N2CCC(O)CC2)cc(C)c1CCS(=O)(=O)N1CCC2(CC1)N=C(c1ccc(F)c(C(F)(F)F)c1)NC2=O [Compound 797, 2-(4-fluoro-3-trifluoromethyl-phenyl)-8-{2-[4-(4-hydroxy-piperidine-1-carbonyl)-2,6-dimethyl-phenyl]-ethanesulfonyl}-1,3,8-triaza-spiro[4.5]dec-1-en-4-one]
3 | 7.1% | Cc1cc(N2C(=O)CNC2=O)cc(C)c1CCS(=O)(=O)N1CCC2(CC1)N=C(c1cccc(OC(F)(F)F)c1)NC2=O [Compound 799, 3-(3,5-dimethyl-4-{2-[4-oxo-2-(3-trifluoromethoxy-phenyl)-1,3,8-triaza-spiro[4.5]dec-1-ene-8-sulfonyl]-ethyl}-phenyl)-imidazolidine-2,4-dione]
4 | 77% | Cc1cc(N2C(=O)CNC2=O)cc(C)c1CCS(=O)(=O)N1CCC2(CC1)N=C(c1ccc(F)c(C(F)(F)F)c1)NC2=O [Compound 800, 3-(4-{2-[2-(4-fluoro-3-trifluoromethyl-phenyl)-4-oxo-1,3,8-triaza-spiro[4.5]dec-1-ene-8-sulfonyl]-ethyl}-3,5-dimethyl-phenyl)-imidazolidine-2,4-dione]
5 | 100% | Cc1cc(C(=O)N2CCC(O)(CF)CC2)cc(C)c1CCS(=O)(=O)N1CCC2(CC1)N=C(c1ccc(F)c(C(F)(F)F)c1)NC2=O [Compound 802, 8-{2-[4-(4-fluoromethyl-4-hydroxy-piperidine-1-carbonyl)-2,6-dimethyl-phenyl]-ethanesulfonyl}-2-(4-fluoro-3-trifluoromethyl-phenyl)-1,3,8-triaza-spiro[4.5]dec-1-en-4-one]
6 | 103% | Cc1cc(C(=O)N2CCC(C)(O)CC2)cc(C)c1CCS(=O)(=O)N1CCC2(CC1)N=C(c1ccc(F)c(C(F)(F)F)c1)NC2=O [Compound 803, 2-(4-fluoro-3-trifluoromethyl-phenyl)-8-{2-[4-(4-hydroxy-4-methyl-piperidine-1-carbonyl)-2,6-dimethyl-phenyl]-ethanesulfonyl}-1,3,8-triaza-spiro[4.5]dec-1-en-4-one]
7 | 78% | Cc1cc(C(=O)N2CCC3(CC2)COC3)cc(C)c1CCS(=O)(=O)N1CCC2(CC1)N=C(c1ccc(F)c(C(F)(F)F)c1)NC2=O [Compound 804, 8-{2-[2,6-dimethyl-4-(2-oxa-7-aza-spiro[3.5]nonane-7-carbonyl)-phenyl]-ethanesulfonyl}-2-(4-fluoro-3-trifluoromethyl-phenyl)-1,3,8-triaza-spiro[4.5]dec-1-en-4-one]
8 | 105% | CC(=O)Nc1ccc(CCS(=O)(=O)N2CCC3(CC2)N=C(C2CCC(C)CC2)NC3=O)c(OC(C)C)c1 (centres unmarked) [Compound 812, N-(3-isopropoxy-4-{2-[2-(4-methyl-cyclohexyl)-4-oxo-1,3,8-triaza-spiro[4.5]dec-1-ene-8-sulfonyl]-ethyl}-phenyl)-acetamide]
9 | 111% | CCCCCCCCCC1=NC2(CCN(S(=O)(=O)CCc3c(C)cc(N(C)C(N)=O)cc3C)CC2)C(=O)N1 [Compound 817, 1-{3,5-dimethyl-4-[2-(2-nonyl-4-oxo-1,3,8-triaza-spiro[4.5]dec-1-ene-8-sulfonyl)-ethyl]-phenyl}-1-methyl-urea]
10 | 79% | Cc1cc(N(CCF)C(N)=O)cc(C)c1CCS(=O)(=O)N1CCC2(CC1)N=C(C1CCC(CCC(F)(F)F)CC1)NC2=O (centres unmarked) [Compound 818, 1-[3,5-dimethyl-4-(2-{4-oxo-2-[4-(3,3,3-trifluoro-propyl)-cyclohexyl]-1,3,8-triaza-spiro[4.5]dec-1-ene-8-sulfonyl}-ethyl)-phenyl]-1-(2-fluoro-ethyl)-urea]
11 | 98% | CC(=O)N(CCOCCO)c1cc(C)c(CCS(=O)(=O)N2CCC3(CC2)N=C(C2CCC(CCC(F)(F)F)CC2)NC3=O)c(C)c1 (centres unmarked) [Compound 820, N-[3,5-dimethyl-4-(2-{4-oxo-2-[4-(3,3,3-trifluoro-propyl)-cyclohexyl]-1,3,8-triaza-spiro[4.5]dec-1-ene-8-sulfonyl}-ethyl)-phenyl]-N-[2-(2-hydroxy-ethoxy)-ethyl]-acetamide]
12 | 82% | Cc1cc(OC[C@H](O)CO)cc(C)c1CCS(=O)(=O)N1CCC2(CC1)N=C(C1CCC(CCC(F)(F)F)CC1)NC2=O (stereo partly drawn) [Compound 821, 8-{2-[4-((R)-2,3-dihydroxy-propoxy)-2,6-dimethyl-phenyl]-ethanesulfonyl}-2-[4-(3,3,3-trifluoro-propyl)-cyclohexyl]-1,3,8-triaza-spiro[4.5]dec-1-en-4-one]
13 | 99% | O=C1NC(C2CCC(CCC(F)(F)F)CC2)=NC12CCN(S(=O)(=O)CCc1cccc3c1ccn3CCOC[C@@H](O)CO)CC2 (stereo partly drawn) [Compound 822, 8-(2-{1-[2-((S)-2,3-dihydroxy-propoxy)-ethyl]-1H-indol-4-yl}-ethanesulfonyl)-2-[4-(3,3,3-trifluoro-propyl)-cyclohexyl]-1,3,8-triaza-spiro[4.5]dec-1-en-4-one]
14 | 140% | CC(=O)N(C[C@H](O)CO)c1cc(C)c(CCS(=O)(=O)N2CCC3(CC2)N=C(CCCCCCCCC(F)(F)F)NC3=O)c(C)c1 [Compound 824, N—((S)-2,3-dihydroxy-propyl)-N-(3,5-dimethyl-4-{2-[4-oxo-2-(9,9,9-trifluoro-nonyl)-1,3,8-triaza-spiro[4.5]dec-1-ene-8-sulfonyl]-ethyl}-phenyl)-acetamide]
15 | 114% | CCCCCCCCCC1=NC2(CCN(S(=O)(=O)CCc3ccc(N(CCOCCO)C(C)=O)cc3C)CC2)C(=O)N1 [Compound 825, N-[2-(2-hydroxy-ethoxy)-ethyl]-N-{3-methyl-4-[2-(2-nonyl-4-oxo-1,3,8-triaza-spiro[4.5]dec-1-ene-8-sulfonyl)-ethyl]-phenyl}-acetamide]
16 | 90% | Cc1cc(N(CCOCCO)C(N)=O)cc(C)c1CCS(=O)(=O)N1CCC2(CC1)N=C(C1CCC(CCC(F)(F)F)CC1)NC2=O (centres unmarked) [Compound 826, 1-[3,5-dimethyl-4-(2-{4-oxo-2-[4-(3,3,3-trifluoro-propyl)-cyclohexyl]-1,3,8-triaza-spiro[4.5]dec-1-ene-8-sulfonyl}-ethyl)-phenyl]-1-[2-(2-hydroxy-ethoxy)-ethyl]-urea]
17 | 78% | COCCN(C(N)=O)c1cc(C)c(CCS(=O)(=O)N2CCC3(CC2)N=C(C2CCC(CCC(F)(F)F)CC2)NC3=O)c(C)c1 (centres unmarked) [Compound 827, 1-[3,5-dimethyl-4-(2-{4-oxo-2-[4-(3,3,3-trifluoro-propyl)-cyclohexyl]-1,3,8-triaza-spiro[4.5]dec-1-ene-8-sulfonyl}-ethyl)-phenyl]-1-(2-methoxy-ethyl)-urea]
18 | 92% | Cc1cc(N(C(N)=O)C(C)C)cc(C)c1CCS(=O)(=O)N1CCC2(CC1)N=C(C1CCC(C)CC1)NC2=O (centres unmarked) [Compound 828, 1-(3,5-dimethyl-4-{2-[2-(4-methyl-cyclohexyl)-4-oxo-1,3,8-triaza-spiro[4.5]dec-1-ene-8-sulfonyl]-ethyl}-phenyl)-1-isopropyl-urea]
19 | 79% | CCc1cc(N(C)C(N)=O)ccc1CCS(=O)(=O)N1CCC2(CC1)N=C(C1CCC(C)CC1)NC2=O (centres unmarked) [Compound 829, 1-(3-ethyl-4-{2-[2-(4-methyl-cyclohexyl)-4-oxo-1,3,8-triaza-spiro[4.5]dec-1-ene-8-sulfonyl]-ethyl}-phenyl)-1-methyl-urea]
20 | 73% | Cc1cc(N(C[C@H](O)CO)C(N)=O)cc(C)c1CCS(=O)(=O)N1CCC2(CC1)N=C(C1CCC(C)CC1)NC2=O (stereo partly drawn) [Compound 830, 1-((S)-2,3-dihydroxy-propyl)-1-(3,5-dimethyl-4-{2-[2-(4-methyl-cyclohexyl)-4-oxo-1,3,8-triaza-spiro[4.5]dec-1-ene-8-sulfonyl]-ethyl}-phenyl)-urea]

Row | SMILES | cAMP production activity (%)
21 | CCCCCCCCCC1=NC2(CCN(S(=O)(=O)CCc3c(C)cc(OCCC(O)CO)cc3C)CC2)C(=O)N1 (centres unmarked) [Compound 798, 8-{2-[4-(3,4-dihydroxy-butoxy)-2,6-dimethyl-phenyl]-ethanesulfonyl}-2-nonyl-1,3,8-triaza-spiro[4.5]dec-1-en-4-one] | 101%
22 | Cc1cc(OCCC(O)CO)cc(C)c1CCS(=O)(=O)N1CCC2(CC1)N=C(c1ccc(F)c(C(F)(F)F)c1)NC2=O (centres unmarked) [Compound 801, 8-{2-[4-(3,4-dihydroxy-butoxy)-2,6-dimethyl-phenyl]-ethanesulfonyl}-2-(4-fluoro-3-trifluoromethyl-phenyl)-1,3,8-triaza-spiro[4.5]dec-1-en-4-one] | 103%
23 | O=C1NC(C2CCC(CCC(F)(F)F)CC2)=NC12CCN(S(=O)(=O)CCc1cccc3c1ccn3CCOC[C@H](O)[C@@H](O)CO)CC2 (stereo partly drawn) [Compound 823, 2-[4-(3,3,3-trifluoro-propyl)-cyclohexyl]-8-(2-{1-[2-((2S,3S)-2,3,4-trihydroxy-butoxy)-ethyl]-1H-indol-4-yl}-ethanesulfonyl)-1,3,8-triaza-spiro[4.5]dec-1-en-4-one] | 103%
